Source: patent US8124359B2, “Use of additives for the reduction of non-specific binding in assays” (Aokin AG, priority 2006, dated 2012)
Where a name gives a salt, the structure may show the parent alone.

How the values were obtained:
anti-thyroxine [1] = experiment: Kinetic curve, rhodamine-labeled thyroxine/anti-thyroxine system in 0.5 M sodium benzoate with 5% isopropanol (Example 5); assay type: binding
Experimental: The protocol used is described below. The additive was sodium benzoate combined with an organic solvent (5% isopropanol). • 1. Use clean glassware, washed with isopropanol. • 2. Make a 0.5 M solution of sodium benzoate. • 3. Make a solution of 5% isopropanol in 0.5 M sodium benzoate (i.e., 2.5 ml 2-propanol in 47.5 mL 0.5 M aqueous sodium benzoate). This will be named BUFFER. • 4. […] 600 μl Buffer added to 1 mL curvette. The absorbance spectrum is measured using a UV-VIS spectrophotometer, 400 nm to 800 nm. This spectrum is used to define the absorbance of the background as zero and to control that it is actually zero. • 6. […] Measure the absorbance UV-VIS, 400 nm to 800 nm. […] Using a rotating polarometer with a 75 watt Xenon short-arc lamp. The rotating polarizer has three channels: Polarization (P), Total Intensity (V+H), and V−H. • 8. […] Measure P, V+H and V−H after short mixing and 30 second equilibration. […] Add 10 μl. Antibody solution (anti-thyroxine in PBS, dilution unknown, probably 5 mg in 1000 μl PBS and further diluted 1:10 in PBS). New volume is 3017 μl. Measure P, V+H and V−H after short mixing.

anti-thyroxine [2] = experiment: Velocity of the reaction between F-thyroxine and anti-thyroxine in the presence of BSA (Examples 8-16); assay type: binding; conditions: BSA 0.1 μM, increasing additive concentrations
Experimental: (§1) The buffer and stock solutions described in Example 1 and the measurement methodology described in Example 2 were used.
• Fluorescein-Thyroxine, 1 nM • Anti-Thyroxine (1:300) • PBS with 5% 2-propanol • BSA 0.1 μM • Sodium benzoate in different concentrations
• Fluorescein-Thyroxine, 1 nM • Anti-Thyroxine (1:300) • PBS with 5% 2-propanol • BSA 0.1 μM • Sodium p-toluene sulfonate in different concentrations
• Fluorescein-Thyroxine, 1 nM • Anti-Thyroxine (1:300) • PBS with 4.75% 2-propanol • BSA 0.1 μM • Potassium benzoate in different concentrations
• Fluorescein-Thyroxine, 1 nM • Anti-Thyroxine (1:300) • PBS with 4.75% 2-propanol • BSA 0.1 μM • Sodium chloroacetate in different concentrations
• Fluorescein-Thyroxine, 1 nM • Anti-Thyroxine (1:300) • PBS with 4.75% 2-propanol • BSA 0.1 μM • Sodium dichloroacetate in different concentrations
[…]. The buffer and stock solutions described in Example 1 and the measurement methodology described in Example 2 were used.
• Fluorescein-Thyroxine, 1.5 nM • Anti-Thyroxine (1:300) • PBS with 4.75% 2-propanol • BSA 0.1 μM • Sodium Salicylate in different concentrations
• Fluorescein-Thyroxine, 1.5 nM • Anti-Thyroxine (1:300) • PBS with 4.75% 2-propanol • BSA 0.1 μM • N-Hydroxysuccinimide in different concentrations
• Fluorescein-Thyroxine, 1.5 nM • Anti-Thyroxine (1:300) • PBS with 4.75% 2-propanol • BSA 0.1 μM • Sodium Chloride in different concentrations

anti-thyroxine sera = experiment: Effect of additive on specific binding of F-thyroxine to anti-thyroxine in the presence of human sera (Example 4); conditions: Buffer 2 (1.0 M sodium benzoate), 50 μl human sera, 20 or 50 μl anti-sera
Experimental: (§2) With reference to FIG. 2, experiments were performed to determine the effects of an additive on specific and non-specific binding. The additive used in the present example was sodium benzoate. The materials described in Example 1 and the measurement methodology described in Example 2 were used. In particular, 50 μl of human sera was added to 3000 μl of Buffer 2 or PBS at pH 7.5 (no additive control) and thoroughly mixed by pipetting for 1 to 10 seconds. To this was added 0 μl of unlabeled thyroxine and 0 μl, 20 μl or 50 μl of anti-sera stock solution. The mixture was thoroughly mixed by pipetting for 1 to 10 seconds. Then, 5 μl of the fluorescein-labeled thyroxine stock solution was added. This was followed by mixing for 1 to 10 seconds by pipetting. Then, d(V−H)/dt measurements were made versus time for between 10 and 600 seconds. This protocol was followed for Experiments 6-9 in Table 2.

human sera = experiment: Effect of additive on non-specific binding of F-thyroxine in human sera (Example 4); conditions: Buffer 2 (1.0 M sodium benzoate), 50 μl human sera
Experimental: as §2

anti-thyroxine [3] = experiment: Velocity of the reaction between F-thyroxine and anti-thyroxine in the absence of non-specific binding components (Example 7); conditions: sodium benzoate increased to 1.0 molar; no serum or BSA; PBS with 5% 2-propanol, F-thyroxine 1 nM
Experimental: as §1
• Fluorescein-thyroxine, 1 nM • Anti-Thyroxine (1:300) • PBS with 5% 2-propanol • Sodium Benzoate in different concentrations

serum components [4] = experiment: Initial non-specific binding between F-thyroxine and serum components (Example 6); conditions: experiments 6-3 through 6-7: serum, increasing sodium benzoate up to 1.0 M; reduced from 195
Experimental: as §1
(§3) • Fluorescein-Thyroxine (1 nM) • Anti-Thyroxine (1:300 dilution) • PBS with 10% 2-propanol • Benzoate in different concentrations • At t=0 s antibody was pipetted into the cuvette. • A 3 ml cuvette was used, the total volume in the cuvette was 2 ml. A small magnetic stirrer was used for mixing
(§4) In example 6, the reactions between F-Thyroxine and Anti-Thyroxine, which were carried out in the presence of serum under different reaction conditions, are compared (FIG. 4). There are seven different amounts of sodium benzoate, between 0 and 1.0 Molar in the cuvette. The reaction was performed in a phosphate buffered saline buffer containing 10% 2-propanol. The table in FIG. 4 lists the two important parameters.

serum components [5] = experiment: Non-specific binding of Rhodamine-Thyroxine to serum components (Example 17); conditions: Rox-Thyroxine 1.5 nM, serum 1:500, PBS with 10% 2-propanol, sodium benzoate in different concentrations
Experimental: (§5) The serum was diluted 1:500 in PBS/10% 2-propanol The buffer and stock solutions, as well as the measurement methodology described in Example 5 were used.
(§6) • Rox-Thyroxine, 1.5 nM • Anti-Thyroxine (1:300) • PBS with 10% 2-propanol • Serum 1:500 • Sodium benzoate in different concentrations

anti-thyroxine [6] = experiment: Velocity of the reaction between Rhodamine-Thyroxine and anti-thyroxine in serum (Example 17); assay type: binding; conditions: Rox-Thyroxine 1.5 nM, serum 1:500, PBS with 10% 2-propanol, increasing sodium benzoate
Experimental: as §5, §6

anti-thyroxine [7] = experiment: Rate of the reaction between F-thyroxine and anti-thyroxine, with and without serum (Example 6); assay type: binding; conditions: experiments 6-3 through 6-7: serum, increasing sodium benzoate up to 1.0 M
Experimental: as §1, §3, §4

[8] = system: polyclonal anti-thyroxine sera; experiment: Fluorescence polarization kinetic measurement, F-thyroxine/anti-thyroxine system (Example 3); assay type: binding; conditions: Experiment 5: unlabeled thyroxine 0-20 μl, antiserum 20 μl, Buffer 1 (0.5 M sodium benzoate)
Experimental: An initial stock solution of anti-thyroxine sera was prepared. In particular, 1 ml of polyclonal anti-thyroxine sera containing 10 mg/ml IgG (Sigma) was diluted 1:5 in PBS buffer, pH 7.5. The final concentration of IgG in the stock solution was about 2 mg/ml.
An initial stock solution of fluorescein-labeled analyte (F-thyroxine) was prepared. Fluorescein-labeled thyroxine at 1248 g/mol in a lyophilized form was obtained from emp Biotech GmbH. First, 5 mg (4×10^−6 moles) of F-thyroxine was diluted to 10 ml in PBS to get a 4.1×10^−4 M solution of F-thyroxine. This solution was then further diluted 100-fold in PBS. The final concentration of F-thyroxine in the stock solution was about 4.1×10^−6 M.
The following is a protocol useful for performing a fluorescein polarization assay of the present invention. All steps are performed at ambient temperature. […] Pipette the mixture formed in step 5 up and down for 1 to 10 seconds and begin measuring polarization (P), Polarized Fluorescence Intensity Difference (V−H) or quenching (V+H total intensity) versus time for between 10 and 7200 seconds after end of mixing in a direct readout polarometer or between 0.1 and 7200 seconds after end of mixing with a stopped-flow polarometer. • 7. […] Against a standard curve, an unknown amount of thyroxine can be measured by comparison of initial rate measurement (speed of reaction) of unknown with the standard curve. […]

[9] = PBS with 4.75% 2-propanol, F-thyroxine 1.5 nM
[10] = PBS with 5% 2-propanol, F-thyroxine 1 nM
[11] = PBS with 4.75% 2-propanol, F-thyroxine 1 nM

## 5-carboxy-X-rhodamine-thyroxine [ROX-T4]
anti-thyroxine [1]; 0.5 M sodium benzoate, 5% isopropanol
  values of P, V−H and V+H over the 600 second time course: increase
anti-thyroxine [1]; 10 s after antibody
  V − H: 660
anti-thyroxine [1]; 13 s after antibody
  V − H: 860
anti-thyroxine [1]; 18 s after antibody
  V − H: 936
anti-thyroxine [1]; 20 s after antibody
  V − H: 1006
anti-thyroxine [1]; 26 s after antibody
  V − H: 1130
anti-thyroxine [1]; 30 s after antibody
  V − H: 1175
anti-thyroxine [1]; 33 s after antibody
  V − H: 1200
anti-thyroxine [1]; 44 s after antibody
  V − H: 1259
anti-thyroxine [1]; 49 s after antibody
  V − H: 1280
anti-thyroxine [1]; 53 s after antibody
  V − H: 1290
anti-thyroxine [1]; 62 s after antibody
  P (mP): 392 mP
anti-thyroxine [1]; 70 s after antibody
  P (mP): 395 mP
anti-thyroxine [1]; 78 s after antibody
  V − H: 1345
anti-thyroxine [1]; 83 s after antibody
  V + H: 3375
anti-thyroxine [1]; 95 s after antibody
  P (mP): 397 mP
anti-thyroxine [1]; 600 s after antibody
  P (mP): 398 mP
  V + H: 3320
  V − H: 1340
anti-thyroxine [1]; before antibody, time 0 s
  P (mP): 75 mP
  V + H: 2291
  V − H: 178

## O=C1CCC(=O)N1O [N-hydroxysuccinimide]
anti-thyroxine [2]; [9]
  rate of the antibody reaction: substantially slowed

## N=C(N)N [guanidine hydrochloride]
anti-thyroxine [2]; [10]
  rate of the antibody reaction: substantially slowed

## O=C([O-])c1ccccc1.[K+] [potassium benzoate]
anti-thyroxine [2]; [11]
  rate of the antibody reaction: substantially slowed

## O=C([O-])c1ccccc1.[Na+] [sodium benzoate]
anti-thyroxine sera
  effect on specific binding: does not inhibit specific binding
Human sera
  effect on non-specific binding: inhibits non-specific binding
anti-thyroxine [3]
  reaction rate between F-thyroxine and antibody: slowed dramatically
anti-thyroxine [2]; [10]
  rate of the antibody reaction: substantially slowed
Serum components [4]
  polarization value before the addition of antibody (t=0): 100 mP
Serum components [5]
  non-specific binding due to the presence of serum components: substantially reduced
anti-thyroxine [6]
  rate of the reaction: substantially slowed
anti-thyroxine [7]
  reaction rate relative to its value at zero additive: about 30%
anti-thyroxine [7]; PBS with 10% 2-propanol
  rate of change of P at t=5 s: 3.2 mP/s

## [Cl-].[Na+] [sodium chloride]
anti-thyroxine [2]; [9]
  rate of the antibody reaction: not substantially slowed

## O=C([O-])CCl.[Na+] [sodium chloroacetate]
anti-thyroxine [2]; [11]
  rate of the antibody reaction: substantially slowed

## O=C([O-])C(Cl)Cl.[Na+] [sodium dichloroacetate]
anti-thyroxine [2]; [11]
  rate of the antibody reaction: substantially slowed

## Cc1ccc(S(=O)(=O)O)cc1.[Na] [sodium p-tolulene sulfonate, sodium p-toluene sulfonate]
anti-thyroxine [2]; [10]
  rate of the antibody reaction: substantially slowed

## O=C([O-])c1ccccc1O.[Na+] [sodium salicylate]
anti-thyroxine [2]; [9]
  rate of the antibody reaction: substantially slowed

## N[C@@H](Cc1cc(I)c(Oc2cc(I)c(O)c(I)c2)c(I)c1)C(=O)O [thyroxine]
[8]
  competitive inhibition of the binding of F-thyroxine to its specific antibody: inhibition of the binding of F-thyroxine to its specific antibody by unlabeled thyroxine occurred
